From US11629201B2, “PSMA-binding agents and uses thereof” (ITM Isotope Technologies Munich SE, priority 2017, dated 2023)
“And” between values parts separate entries of the source, which are not always exact repeats. Identical values can stand only once.

Columns and labels:
mouse plasma proteins = assay: Ultrafiltration assay, binding to mouse plasma proteins; type: in vitro ADME
Description: Filter Assay. […] In addition, the radioligands were diluted in PBS (buffer solution without proteins) as a control experiment. Aliquots of the solutions were loaded onto an ultrafiltration device and centrifuged. The filtered activity was measured with a γ-counter and used for calculating the plasma protein-bound activity (retained on the filter membrane) as the percentage of total added activity. […] Statistical analysis (one-way ANOVA with Bonferroni's multiple comparison post-test) was performed using GraphPad Prism software, version 7. A p-value of <0.05 was considered statistically significant.

[1] = tested on: PSMA-positive PC-3 PIP cells; assay: Cell uptake and internalization in PSMA-positive PC-3 PIP cells; type: cell-based
human plasma proteins = assay: Ultrafiltration assay, binding to human plasma proteins; conditions: human plasma, ultrafiltration
Description: Therefore, the compounds were labeled with ^177Lu at a specific activity of 50 MBq/nmol and incubated in human plasma samples or PBS at room temperature. The free and plasma-bound fractions were separated using a centrifree ultrafiltration device (4104 centrifugal filter units [Millipore]; 30000 Da nominal molecular weight limit, methylcellulose micropartition membranes). The incubated solution was loaded to the ultrafiltration device and centrifuged at 2500 rpm for 40 min at 20° C. Samples from the filtrate were taken an analyzed for radioactivity in a gamma-counter. The amount of plasma-bound compound was calculated as the fraction of radioactivity measured in the filtrate relative to the corresponding loading solution (set to 100%).
Determination of Albumin-binding Properties. The binding of the radioligands to human plasma proteins was determined by an ultrafiltration assay. […] Three independent experiments were performed in duplicates with both radioligands and the data was fitted to a semi-logarithmic plot (non-linear regression, one-site, specific binding) to obtain the half maximum binding (B50) in GraphPad Prism software (version 7).
The ^177Lu-labeled PSMA ligands (50 MBq/nmol) were diluted in mouse plasma (Rockland, USA) and human plasma (Stiftung Blutspende SRK Aargau-Solothurn, Switzerland), respectively, and incubated for 15 min at room temperature. In addition, the radioligands were diluted in PBS (buffer solution without proteins) as a control experiment. Aliquots of the solutions were loaded onto an ultrafiltration device and centrifuged. The filtered activity was measured with a γ-counter and used for calculating the plasma protein-bound activity (retained on the filter membrane) as the percentage of total added activity. […] Statistical analysis (one-way ANOVA with Bonferroni's multiple comparison post-test) was performed using GraphPad Prism software, version 7. A p-value of <0.05 was considered statistically significant.

[2] = tested on: PC-3 PIP/flu tumor-bearing mice; assay: Biodistribution studies in PC-3 PIP/flu tumor-bearing mice; conditions: for Tumor-to-blood / Tumor-to-kidney / Tumor-to-liver: PC-3 PIP tumor
[3] = non-decay-corrected biodistribution data up to 192 h p.i.

Question: How did the plasma protein-bound fraction (mouse plasma proteins) turn out when `O=C(O)CCC(NC(=O)NC(CCCCNC(=O)C(Cc1ccc2ccccc2c1)NC(=O)C1CCC(CNC(=O)C(CCCCNC(=O)CN2CCN(CC(=O)O)CCN(CC(=O)O)CCN(CC(=O)O)CC2)NC(=O)CC(NC(=O)CC(NC(=O)CC(NC(=O)CCCc2ccc(I)cc2)C(=O)O)C(=O)O)C(=O)O)CC1)C(=O)O)C(=O)O` (stereo not shown) [^177Lu-PSMA-ALB-07, metal not drawn] was run?
Answer: Its plasma protein-bound fraction is 64±2.1%.

Question: And the cell uptake ([1]; 2 h)?
Answer: Its cell uptake is 52-57%.

Question: What about the internalized fraction ([1]; 2 h) of the same compound?
Answer: Its internalized fraction is 18-24%.

Question: What about the cell uptake ([1]; 4 h) of the same compound?
Answer: Its cell uptake is 60-63%.

Question: What about the internalized fraction ([1]; 4 h) of the same compound?
Answer: Its internalized fraction is 20-26%.

Question: And the plasma protein-bound fraction (human plasma proteins)?
Answer: Its plasma protein-bound fraction is 95±0.1%.

Question: And the Blood ([2]; 4 h p.i.)?
Answer: The Blood was 6.67 ± 2.04 % IA/g.

Question: What about the Bone ([2]; 4 h p.i.) of the same compound?
Answer: The Bone was 1.30 ± 0.27 % IA/g.

Question: And the Heart ([2]; 4 h p.i.)?
Answer: The Heart was 2.43 ± 0.78 % IA/g.

Question: And the Intestines ([2]; 4 h p.i.)?
Answer: The Intestines was 1.27 ± 0.45 % IA/g.

Question: What about the Kidneys ([2]; 4 h p.i.) of the same compound?
Answer: The Kidneys was 67.0 ± 9.50 % IA/g.

Question: What about the Liver ([2]; 4 h p.i.) of the same compound?
Answer: The Liver was 1.94 ± 1.02 % IA/g.

Question: And the Lung ([2]; 4 h p.i.)?
Answer: The Lung was 4.67 ± 0.92 % IA/g.

Question: And the Muscle ([2]; 4 h p.i.)?
Answer: Its Muscle is 0.78 ± 0.22 % IA/g.

Question: And the “PC-3 PIP Tumor” value ([2]; 4 h p.i.)?
Answer: Its value is 63.5 ± 27.4 % IA/g.

Question: And the “PC-3 flu Tumor” value ([2]; 4 h p.i.)?
Answer: Its value is 1.80 ± 0.27 % IA/g.

Question: What about the Salivary glands ([2]; 4 h p.i.) of the same compound?
Answer: The Salivary glands was 2.09 ± 0.50 % IA/g.

Question: What about the Spleen ([2]; 4 h p.i.) of the same compound?
Answer: The Spleen was 3.41 ± 1.46 % IA/g.

Question: And the Stomach ([2]; 4 h p.i.)?
Answer: Its Stomach is 1.09 ± 0.30 % IA/g.

Question: What about the Tumor-to-blood ([2]; 4 h p.i.) of the same compound?
Answer: Its Tumor-to-blood is 9327 ± 1.75.

Question: And the Tumor-to-kidney ([2]; 4 h p.i.)?
Answer: The Tumor-to-kidney was 0.88 ± 0.28.

Question: And the Tumor-to-liver ([2]; 4 h p.i.)?
Answer: Its Tumor-to-liver is 33.6 ± 6.56.

Question: And the Blood ([2]; 24 h p.i.)?
Answer: The Blood was 0.79 ± 0.08 % IA/g.

Question: What about the Bone ([2]; 24 h p.i.) of the same compound?
Answer: The Bone was 0.31 ± 0.10 % IA/g.

Question: What about the Heart ([2]; 24 h p.i.) of the same compound?
Answer: Its Heart is 0.40 ± 0.00 % IA/g.

Question: And the Intestines ([2]; 24 h p.i.)?
Answer: The Intestines was 0.20 ± 0.03 % IA/g.

Question: And the Kidneys ([2]; 24 h p.i.)?
Answer: Its Kidneys is 51.9 ± 6.34 % IA/g.

Question: What about the Liver ([2]; 24 h p.i.) of the same compound?
Answer: The Liver was 0.52 ± 0.04 % IA/g.

Question: What about the Lung ([2]; 24 h p.i.) of the same compound?
Answer: The Lung was 0.73 ± 0.06 % IA/g.

Question: And the Muscle ([2]; 24 h p.i.)?
Answer: The Muscle was 0.13 ± 0.01 % IA/g.

Question: And the “PC-3 PIP Tumor” value ([2]; 24 h p.i.)?
Answer: Its value is 84.6 ± 14.2 % IA/g.

Question: What about the “PC-3 flu Tumor” value ([2]; 24 h p.i.) of the same compound?
Answer: Its value is 0.80 ± 0.17 % IA/g.

Question: What about the Salivary glands ([2]; 24 h p.i.) of the same compound?
Answer: The Salivary glands was 0.43 ± 0.04 % IA/g.

Question: What about the Spleen ([2]; 24 h p.i.) of the same compound?
Answer: Its Spleen is 1.14 ± 0.04 % IA/g.

Question: What about the Stomach ([2]; 24 h p.i.) of the same compound?
Answer: Its Stomach is 0.18 ± 0.06 % IA/g.

Question: And the Tumor-to-blood ([2]; 24 h p.i.)?
Answer: The Tumor-to-blood was 107 ± 12.2 and 107 ± 10.

Question: And the Tumor-to-kidney ([2]; 24 h p.i.)?
Answer: The Tumor-to-kidney was 1.64 ± 0.29 and 1.6 ± 0.2.

Question: And the Tumor-to-liver ([2]; 24 h p.i.)?
Answer: The Tumor-to-liver was 162 ± 17.3 and 162 ± 14.

Question: What about the Tumor-to-blood ([2]; 48 h p.i.) of the same compound?
Answer: The Tumor-to-blood was 154 ± 7.

Question: What about the Tumor-to-kidney ([2]; 48 h p.i.) of the same compound?
Answer: Its Tumor-to-kidney is 2.3 ± 0.1.

Question: What about the Tumor-to-liver ([2]; 48 h p.i.) of the same compound?
Answer: The Tumor-to-liver was 131 ± 13.

Question: What about the Blood ([2]; 72 h p.i.) of the same compound?
Answer: Its Blood is 0.40 ± 0.06 % IA/g.

Question: And the Bone ([2]; 72 h p.i.)?
Answer: The Bone was 0.31 ± 0.06 % IA/g.

Question: And the Heart ([2]; 72 h p.i.)?
Answer: The Heart was 0.21 ± 0.01 % IA/g.

Question: What about the Intestines ([2]; 72 h p.i.) of the same compound?
Answer: Its Intestines is 0.10 ± 0.01 % IA/g.

Question: What about the Kidneys ([2]; 72 h p.i.) of the same compound?
Answer: The Kidneys was 26.0 ± 1.58 % IA/g.

Question: What about the Liver ([2]; 72 h p.i.) of the same compound?
Answer: The Liver was 0.44 ± 0.08 % IA/g.

Question: And the Lung ([2]; 72 h p.i.)?
Answer: Its Lung is 0.43 ± 0.02 % IA/g.

Question: And the Muscle ([2]; 72 h p.i.)?
Answer: The Muscle was 0.08 ± 0.01 % IA/g.

Question: And the “PC-3 PIP Tumor” value ([2]; 72 h p.i.)?
Answer: Its value is 62.6 ± 6.35 % IA/g.

Question: What about the “PC-3 flu Tumor” value ([2]; 72 h p.i.) of the same compound?
Answer: The value was 0.43 ± 0.04 % IA/g.

Question: And the Salivary glands ([2]; 72 h p.i.)?
Answer: The Salivary glands was 0.21 ± 0.01 % IA/g.

Question: What about the Spleen ([2]; 72 h p.i.) of the same compound?
Answer: The Spleen was 0.49 ± 0.03 % IA/g.

Question: What about the Stomach ([2]; 72 h p.i.) of the same compound?
Answer: Its Stomach is 0.10 ± 0.01 % IA/g.

Question: What about the Tumor-to-blood ([2]; 72 h p.i.) of the same compound?
Answer: The Tumor-to-blood was 160 ± 37.0.

Question: What about the Tumor-to-kidney ([2]; 72 h p.i.) of the same compound?
Answer: Its Tumor-to-kidney is 2.41 ± 0.18.

Question: What about the Tumor-to-liver ([2]; 72 h p.i.) of the same compound?
Answer: Its Tumor-to-liver is 147 ± 38.4.

Question: What about the “AUC PC-3 PIP tumor” value [2, 3] of the same compound?
Answer: Its value is 7007 ± 459 % IA/g · h.

Question: And the AUC blood [2, 3]?
Answer: Its AUC blood is 180 ± 7.2 % IA/g · h.

Question: What about the AUC kidneys [2, 3] of the same compound?
Answer: Its AUC kidneys is 3395 ± 201 % IA/g · h.

Question: What about the AUC liver [2, 3] of the same compound?
Answer: Its AUC liver is 72 ± 3.6 % IA/g · h.

Question: And the “Ratio of AUCs AUCTu-to-AUCBl” value ([2]; tumor to blood)?
Answer: The value was 39.

Question: And the “Ratio of AUCs AUC-Tu-to-AUC-Ki” value ([2]; tumor to kidneys)?
Answer: The value was 2.1.

Question: What about the “Ratio of AUCs AUCTu-to-AUCLi” value ([2]; tumor to liver) of the same compound?
Answer: Its value is 97.
